{"source": "patent US6469177B1", "about": "“Surface active N-Halamine compounds” (Auburn University, priority 1997, dated 2002)", "test_system": "S. aureus (ATCC 6538)", "experiment": "Efficacy of N-halamine compounds against S. aureus in aqueous solution (Example 20)", "type": "cell-based, Staphylococcus aureus", "conditions": "pH 7.0; 22 ° C.; chlorine-demand-free water; 5 or 10 milligrams/liter total chlorine", "protocol": "The bacterial efficacies of the compounds against S. aureus (ATCC 6538) in chlorine-demand-free water were determine by using techniques employed previously in extensive detail by Williams et al., Appl. Environ. Microbial., 54:2583 (1987). Solutions containing 10^6 CFU final cell densities of bacteria were prepared and treated with the various disinfectant compounds described in examples 1-17 at either 5 or 10 milligrams/liter total chlorine concentration which was previously determined by titration using a stock solution with sodium thiosulfate. Aliquots were removed at several predetermined times, and the active halogen was quenched by sterile 0.02 normal sodium thiosulfate. Serial dilutions were made into sterile saline, and three 25 microliter aliquots of each dilution were applied to the dried surface of a Petri dish containing nutrient agar. After incubation at 37° C. for 48 hours, the three replicates for each dilution were counted and averaged. Control samples containing no disinfectant, or in some cases, unchlorinated precursor compounds, were handled in the same manner. […] Inactivation of the organism was considered to be at least 99.9999% when no colonies were detected in the thiosulfate-quenched aliquots.", "data": [{"smiles": "C=CC(=O)OCC1(CC)COC(=O)N1Br", "note": "(stereo not shown) [Polymer 1a-Br, 3-bromo-4-(acryloxymethyl)-4-ethyl-2-oxazolidinone]", "values": [{"measurement": "Contact Time for 6-log Inactivation of S. aureus", "result": "<5", "unit": "min"}]}]}
